In PubChem BioAssay (NCI):
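Grown in 96-well plates, cells were treated for 48 hours with each compound at five concentrations. Insufficient inhibition: endpoint recorded as highest concentration tested. GI50: concentration for 50% inhibition of growth. TGI: concentration producing complete growth inhibition.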

What was measured:
Experiment in all cases: NCI anticancer screen, dose series, 48 h
[1] = tested on: RXF 393 renal
[2] = tested on: SNB-19 CNS
[3] = tested on: RPMI-8226 leukemia
[4] = tested on: MALME-3M melanoma
[5] = tested on: SNB-75 CNS
[6] = tested on: K-562 leukemia
[7] = tested on: HCC-2998 colon
[8] = tested on: OVCAR-8 ovarian
[9] = tested on: SF-295 CNS
[10] = tested on: KM12 colon
[11] = tested on: HOP-62 NSCLC
[12] = tested on: U251 CNS
[13] = tested on: 786-0 renal
[14] = tested on: SK-MEL-5 melanoma
[15] = tested on: SN12C renal
[16] = tested on: CCRF-CEM leukemia
[17] = tested on: HCT-15 colon
[18] = tested on: NCI-H522 lung
[19] = tested on: UO-31 renal
[20] = tested on: CAKI-1 renal
[21] = tested on: IGROV1 ovarian
[22] = tested on: NCI-H460 lung
[23] = tested on: SK-OV-3 ovarian
[24] = tested on: HS 578T breast
[25] = tested on: UACC-62 melanoma
[26] = tested on: A549 NSCLC
[27] = tested on: DU-145 prostate
[28] = tested on: HCT-116 colon
[29] = tested on: MCF7 breast
[30] = tested on: SR leukemia
[31] = tested on: M14 melanoma
[32] = tested on: LOX IMVI melanoma
[33] = tested on: TK-10 renal
[34] = tested on: SW-620 colon
[35] = tested on: NCI-H226 lung
[36] = tested on: BT-549 breast
[37] = tested on: PC-3 prostate
[38] = tested on: T-47D breast
[39] = tested on: UACC-257 melanoma
[40] = tested on: ACHN renal
[41] = tested on: OVCAR-5 ovarian
[42] = tested on: A498 renal
[43] = tested on: HT29 colon
[44] = tested on: SF-268 CNS
[45] = tested on: NCI/ADR-RES ovarian
[46] = tested on: OVCAR-3 ovarian
[47] = tested on: SK-MEL-2 melanoma
[48] = tested on: MDA-MB-231 breast
[49] = tested on: HOP-92 NSCLC
[50] = tested on: MDA-MB-435
[51] = tested on: MOLT-4 leukemia
[52] = tested on: EKVX NSCLC
[53] = tested on: NCI-H23 lung
[54] = tested on: HL-60(TB) leukemia
[55] = tested on: SF-539 CNS
[56] = tested on: SK-MEL-28 melanoma
[57] = tested on: COLO 205 colon
[58] = tested on: OVCAR-4 ovarian

CC(C)c1c(C(=O)Nc2ccccc2)c(-c2ccccc2)c(-c2ccc(F)cc2)n1CC[C@@H]1CC=CC(=O)O1
GI50 [1]: 1.62 µM
TGI [1]: 3.13 µM
GI50 [2]: 1.7 µM
TGI [2]: 3.13 µM
GI50 [3]: 0.285 µM
TGI [3]: 1.17 µM
GI50 [4]: 1.76 µM
TGI [4]: 3.41 µM
GI50 [5]: 1.43 µM
TGI [5]: 2.78 µM
GI50 [6]: 0.422 µM
TGI [6]: 2.62 µM
GI50 [7]: 1.92 µM
TGI [7]: 3.5 µM
GI50 [8]: 2.23 µM
TGI [8]: 5.23 µM
GI50 [9]: 3.28 µM
TGI [9]: 13.6 µM
GI50 [10]: 1.65 µM
TGI [10]: 3.24 µM
GI50 [11]: 1.85 µM
TGI [11]: 4.14 µM
GI50 [12]: 1.7 µM
TGI [12]: 3.17 µM
GI50 [13]: 1.68 µM
TGI [13]: 3.56 µM
GI50 [14]: 1.58 µM
TGI [14]: 2.94 µM
GI50 [15]: 1.01 µM
TGI [15]: 3.82 µM
GI50 [16]: 0.39 µM
TGI [16]: 2.44 µM
GI50 [17]: 1.88 µM
TGI [17]: 3.85 µM
GI50 [18]: 1.5 µM
TGI [18]: 2.98 µM
GI50 [19]: 1.28 µM
TGI [19]: 2.57 µM
GI50 [20]: 1.6 µM
TGI [20]: 3.45 µM
GI50 [21]: 2.3 µM
TGI [21]: 5.41 µM
GI50 [22]: 2.05 µM
TGI [22]: 4.21 µM
GI50 [23]: 3.39 µM
TGI [23]: 11.9 µM
GI50 [24]: 2.14 µM
TGI [24]: 6.05 µM
GI50 [25]: 1.7 µM
TGI [25]: 3.37 µM
GI50 [26]: 1.99 µM
TGI [26]: 4.6 µM
GI50 [27]: 1.84 µM
TGI [27]: 3.27 µM
GI50 [28]: 0.278 µM
TGI [28]: 1.23 µM
GI50 [29]: 1.78 µM
TGI [29]: 4.01 µM
GI50 [30]: 2.66 µM
TGI [30]: 9.49 µM
GI50 [31]: 1 µM
TGI [31]: 2.48 µM
GI50 [32]: 1.63 µM
TGI [32]: 3.06 µM
GI50 [33]: 2.18 µM
TGI [33]: 4.67 µM
GI50 [34]: 1.71 µM
TGI [34]: 3.52 µM
GI50 [35]: 1.71 µM
TGI [35]: 3.26 µM
GI50 [36]: 1.6 µM
TGI [36]: 3.46 µM
GI50 [37]: 1.31 µM
TGI [37]: 3.86 µM
GI50 [38]: 2.58 µM
TGI [38]: 7.65 µM
GI50 [39]: 1.97 µM
TGI [39]: 3.92 µM
GI50 [40]: 1.57 µM
TGI [40]: 2.92 µM
GI50 [41]: 2.05 µM
TGI [41]: 5.02 µM
GI50 [42]: 4.92 µM
TGI [42]: 19.1 µM
GI50 [43]: 1.62 µM
TGI [43]: 3.66 µM
GI50 [44]: 1.81 µM
TGI [44]: 3.65 µM
GI50 [45]: 2.46 µM
TGI [45]: 6.09 µM
GI50 [46]: 1.8 µM
TGI [46]: 3.31 µM
GI50 [47]: 1.87 µM
TGI [47]: 3.43 µM
GI50 [48]: 2.08 µM
TGI [48]: 4.51 µM
GI50 [49]: 0.419 µM
TGI [49]: 2.28 µM
GI50 [50]: 1.7 µM
TGI [50]: 3.27 µM
GI50 [51]: 2.62 µM
TGI [51]: 6.98 µM
GI50 [52]: 1.86 µM
TGI [52]: 3.68 µM
GI50 [53]: 2.03 µM
TGI [53]: 4.04 µM
GI50 [54]: 1.24 µM
TGI [54]: 6.42 µM
GI50 [55]: 1.61 µM
TGI [55]: 3.14 µM
GI50 [56]: 1.69 µM
TGI [56]: 3.14 µM
GI50 [57]: 1.68 µM
TGI [57]: 3.5 µM

N/C(=C\C(=O)n1nc(-c2ccccc2)cc1N)c1ccccc1
GI50 [1]: 13.3 µM
TGI [1]: 44.8 µM
GI50 [2]: 14.9 µM
TGI [2]: 81.2 µM
GI50 [3]: 2.75 µM
TGI [3]: 16.2 µM
GI50 [4]: 7.51 µM
TGI [4]: 25.2 µM
GI50 [5]: 3.72 µM
TGI [5]: 52.1 µM
GI50 [6]: 2.06 µM
TGI [6]: 24.4 µM
GI50 [7]: 11.8 µM
TGI [7]: 34.2 µM
GI50 [8]: 13.8 µM
TGI [8]: > 100 µM
GI50 [9]: 3.48 µM
TGI [9]: 31.6 µM
GI50 [10]: 2.9 µM
TGI [10]: 14.1 µM
GI50 [11]: 8.3 µM
TGI [11]: 32.4 µM
GI50 [58]: 12.5 µM
TGI [58]: 47.1 µM
GI50 [12]: 4.04 µM
TGI [12]: 19.2 µM
GI50 [13]: 7.72 µM
TGI [13]: 44.3 µM
GI50 [14]: 3.01 µM
TGI [14]: 12.1 µM
GI50 [15]: 7.96 µM
TGI [15]: 24.3 µM
GI50 [16]: 1.34 µM
TGI [16]: 13.5 µM
GI50 [17]: 4.09 µM
TGI [17]: 74.6 µM
GI50 [18]: 5.24 µM
TGI [18]: 27.9 µM
GI50 [19]: 3.71 µM
TGI [19]: 65.3 µM
GI50 [20]: 5.96 µM
TGI [20]: 80.4 µM
GI50 [21]: 6.38 µM
TGI [21]: 61.7 µM
GI50 [22]: 3.55 µM
TGI [22]: 15.8 µM
GI50 [23]: 5.31 µM
TGI [23]: 39 µM
GI50 [24]: 2.41 µM
TGI [24]: 13 µM
GI50 [25]: 3.09 µM
TGI [25]: 19.2 µM
GI50 [26]: 7.29 µM
TGI [26]: 81.3 µM
GI50 [27]: 5.39 µM
TGI [27]: 27.7 µM
GI50 [28]: 3.77 µM
TGI [28]: 16 µM
GI50 [29]: 2.86 µM
TGI [29]: 21.1 µM
GI50 [30]: 1.59 µM
TGI [30]: 7.38 µM
GI50 [31]: 3.13 µM
TGI [31]: 14.7 µM
GI50 [32]: 6.54 µM
TGI [32]: 31.4 µM
GI50 [33]: 7.72 µM
TGI [33]: > 100 µM
GI50 [34]: 3.59 µM
TGI [34]: 17.2 µM
GI50 [35]: 11.2 µM
TGI [35]: 47.5 µM
GI50 [36]: 2.56 µM
TGI [36]: 27.4 µM
GI50 [37]: 4.35 µM
TGI [37]: 28.9 µM
GI50 [38]: 3.27 µM
TGI [38]: 26.3 µM
GI50 [39]: 17.4 µM
TGI [39]: 70.3 µM
GI50 [40]: 8.29 µM
TGI [40]: > 100 µM
GI50 [41]: 19.2 µM
TGI [41]: 61.6 µM
GI50 [42]: 2.77 µM
TGI [42]: 12.5 µM
GI50 [43]: 3.46 µM
TGI [43]: 13 µM
GI50 [44]: 5.14 µM
TGI [44]: 31.7 µM
GI50 [45]: 3.2 µM
TGI [45]: > 100 µM
GI50 [46]: 2.28 µM
TGI [46]: 6.46 µM
GI50 [47]: 4.96 µM
TGI [47]: 26.2 µM
GI50 [48]: 11.3 µM
TGI [48]: 65.2 µM
GI50 [49]: 4.59 µM
TGI [49]: 31.8 µM
GI50 [50]: 1.19 µM
TGI [50]: 3.56 µM
GI50 [51]: 3.72 µM
TGI [51]: 17.8 µM
GI50 [52]: 5.57 µM
TGI [52]: 35.9 µM
GI50 [53]: 4.59 µM
TGI [53]: 22.8 µM
GI50 [54]: 1.88 µM
TGI [54]: 5.99 µM
GI50 [56]: 5.84 µM
TGI [56]: 32.3 µM
GI50 [57]: 3.6 µM
TGI [57]: 14.7 µM
